In patent US6001852A (priority 1996, dated 1999):

Assays:
Aβ = test: Solubilization of Aβ from Alzheimer's disease brain homogenates (Western blot, mAb W02); type: biochemical, human; conditions: frontal lobe neocortex homogenized in clioquinol/PBS at 100%, 10% and 1% (100%=800 nM)
Procedure: Brain specimens were obtained for which a histopathological diagnosis of Alzheimer's disease was confirmed.
The homogenates were centrifuged at 150,000 xg for thirty minutes and the supernatants collected and held on ice (fraction "S"). The pellets were subjected to an identical homogenization and centrifugation regime and the resulting supernatants again collected (fraction "P")
1 ml of each supernatant was treated with 200 μl of ice cold 10% TCA to precipitate total protein including Aβ. The resulting pellet was washed once with 100% ethanol and resuspended in 100 μl of TBS (tris 20 mM, NaCl 150 mM, pH 7.4).
7.5 μl of sample (S or P) was boiled for 5 min. with an equal volume of tris-tricine sample buffer containing 4% SDS and loaded onto a Novex pre-cast 10-20% tris-tricine gel followed by Western transfer onto nitrocellulose. […] The sensitivity of the detection system is 5-10 pg.
To validate the TCA precipitation for Aβ 1 μg of synthetic Aβ 1-40 was added to 1 ml of PBS containing 10% BSA and the solution was treated as above.

zinc-aggregated Aβ = test: Resolubilization of zinc-aggregated Aβ in TBS pH 7.4; type: biochemical; conditions: clioquinol added after 30 μM zinc (43% in solution with zinc alone, 95% before zinc)
Procedure: The ability of clioquinol to resolubilize zinc-aggregated Aβ was assessed. A […] solution of Aβ in TBS at a pH of 7.4 was prepared. 95% of the Aβ was maintained in a soluble state.

[1] = Dissolution of clioquinol in n-decane and extraction into PBS pH 7.4; type: physicochemical
Procedure: The resolubilization of amyloid aggregates by clioquinol was studied. […] The undissolved aterial was allowed to settle. […] 100 ml of the (light yellow) supernatant was agitated together with 100 ml of PBS pH 7.4 and the phases allowed to separate. The PBS (lower phase) was collected and filtered to remove the residue which formed at the phase interface upon extraction with the organic solvent.

zinc precipitated Aβ = test: Washing of zinc-aggregated synthetic Aβ on nylon membrane (anti Aβ mAb 6E10, ECL-film); type: biochemical; conditions: 2 μM in TBS, 200 μl wash; 10 ng Aβ aggregated with 25 μM ZnCl; 100% for TBS alone
Procedure: Samples of 10 ng synthetic Aβ were placed in microtitre wells and caused to aggregate by the addition of 25 μM ZnCl. The aggregates were then transferred to a 0.2 μm nylon membrane by filtration. […] The membrane was fixed, probed with the anti Aβ monoclonal antibody 6E10 and developed for exposure to ECL-film. The transmittance of the ECL-film was measured and the relative signal strength calculated based on 100% for TBS alone.

[2] = 1H NMR study of the interaction of vitamin B12 with clioquinol glucuronide; type: binding; conditions: 2.6 mM vitamin B12 and 10 mM clioquinol glucuronide, buffered water pH 6.5, 20° C.
Procedure: Three different solutions were prepared and their ^1 H NMR spectra were recorded in a DRX 400 MHz spectrophotometer at 20° C. Solution a) contained free vitamin B12 (hydroxycobalamin) in a concentration of 2.6 mM.
In FIG. 1 the spectra of the three solutions are presented for the aromatic region (5.5-9.8 ppm). The differences are quite small but obvious in the expansion shown of FIG. 2 and FIG. 3, respectively.

Oc1c(I)cc(Cl)c2cccnc12 [clioquinol, 5-chloro-7-iodo-8 hydroxyquinoline]
Solubilization of Aβ (Aβ): effective in promoting the solubilization of Aβ | Soluble Aβ (zinc-aggregated Aβ): 70% | Share of clioquinol dissolved in n-decane ([1]; 5.3 g suspended in 200 ml n-decane): 2% | Concentration of clioquinol in the PBS ([1]; PBS pH 7.4 extract of decane supernatant, 1:1, assuming 2% dissolved and partitioning coefficient 1/1750): 800 nM

O=C(O)CN(CCN(CC(=O)O)CC(=O)O)CC(=O)O [EDTA]
Relative signal strength (Aβ remaining on membrane) (zinc precipitated Aβ): 66%

COC(=O)[C@H]1OC(Oc2c(I)cc(Cl)c3cccnc23)[C@H](OC(C)=O)[C@@H](OC(C)=O)[C@@H]1OC(C)=O (stereo partly drawn) [methyl (5-chloro-7-iodo-quinolyl-2',3',4'-tri-o-acetyl-glucopyranosid)uronate]
Interaction with vitamin B12 (shifted 1H NMR resonances) [2]: interaction between clioquinol glucuronide and vitamin B12
